In PubChem BioAssay (NCI):
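Five concentrations, 48 hours, 96-well plates. TGI marks complete inhibition of growth.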

Tests used:
Test in all cases: NCI tumour cell line growth inhibition, 48 h
[1] = tested on: DMS 114 small cell lung
[2] = tested on: SK-MEL-5 melanoma
[3] = tested on: SK-MEL-28 melanoma
[4] = tested on: P388 leukemia
[5] = tested on: KM12 colon
[6] = tested on: HOP-62 NSCLC
[7] = tested on: SF-268 CNS
[8] = tested on: RXF 393 renal
[9] = tested on: M19-MEL melanoma
[10] = tested on: NCI-H226 lung
[11] = tested on: UO-31 renal
[12] = tested on: DMS 273 small cell lung
[13] = tested on: SN12C renal
[14] = tested on: UACC-257 melanoma
[15] = tested on: SF-539 CNS
[16] = tested on: HCT-15 colon
[17] = tested on: MALME-3M melanoma
[18] = tested on: HL-60(TB) leukemia
[19] = tested on: UACC-62 melanoma
[20] = tested on: MOLT-4 leukemia
[21] = tested on: MCF7 breast
[22] = tested on: HT29 colon
[23] = tested on: SF-295 CNS
[24] = tested on: SN12K1 renal
[25] = tested on: SK-OV-3 ovarian
[26] = tested on: EKVX NSCLC
[27] = tested on: HOP-18 NSCLC
[28] = tested on: NCI-H23 lung
[29] = tested on: COLO 205 colon
[30] = tested on: SNB-19 CNS
[31] = tested on: HCT-116 colon
[32] = tested on: A549 NSCLC
[33] = tested on: DLD-1 colon
[34] = tested on: OVCAR-3 ovarian
[35] = tested on: NCI/ADR-RES ovarian
[36] = tested on: NCI-H460 lung
[37] = tested on: P388/ADR leukemia
[38] = tested on: OVCAR-8 ovarian
[39] = tested on: CCRF-CEM leukemia
[40] = tested on: A498 renal
[41] = tested on: OVCAR-4 ovarian
[42] = tested on: SNB-75 CNS
[43] = tested on: XF 498 CNS
[44] = tested on: KM20L2 colon
[45] = tested on: K-562 leukemia
[46] = tested on: RPMI-8226 leukemia
[47] = tested on: SNB-78 CNS
[48] = tested on: NCI-H522 lung
[49] = tested on: HCC-2998 colon
[50] = tested on: OVCAR-5 ovarian
[51] = tested on: LOX IMVI melanoma
[52] = tested on: SW-620 colon
[53] = tested on: SK-MEL-2 melanoma
[54] = tested on: U251 CNS
[55] = tested on: IGROV1 ovarian
[56] = tested on: TK-10 renal
[57] = tested on: SR leukemia
[58] = tested on: CAKI-1 renal
[59] = tested on: HOP-92 NSCLC
[60] = tested on: M14 melanoma
[61] = tested on: 786-0 renal
[62] = tested on: LXFL 529 NSCLC
[63] = tested on: RXF-631 renal
[64] = tested on: ACHN renal

Measured: TGI

CCC1CN2CCC1CC2 (stereo not given)
not listed: [56] | [57] | [58] | [59] | [60] | [61] | [62] | [63] | [64]
> 100 µM: all other assays above

CCOC(=O)C1=C(O)CSC1=Nc1ccccc1
not listed: [1] | [2] | [4] | [8] | [21] | [24] | [26] | [27] | [35] | [37] | [39] | [40] | [43] | [54]
> 100 µM: all other assays above
